Test results: ChEMBL document CHEMBL5325419, “Design, synthesis and biological evaluation of novel thiosemicarbazones as cruzipain inhibitors” (Eur J Med Chem, 2023)
Where “and” joins values, the source holds several entries; their conditions need not be identical. Identical values can stand only once. Calls of active or inactive are those of the source. No cut-off for these calls is given here.

Assays:
[1] = target: Cruzipain (Trypanosoma cruzi) (UniProt P25779); assay: Time dependent inhibition of recombinant Trypanosoma cruzi Cruzipain using Z-FR-AMC as substrate at 1000 nM preincubated for 60 mins followed by substrate addition and measured for 45 to 60 mins by fluorescence analysis; conditions: time 105-120 min, TDE = time-dependent effect
[2] = target: Cruzipain (Trypanosoma cruzi) (UniProt P25779); assay: Inhibition of recombinant Trypanosoma cruzi Cruzipain using Z-FR-AMC as substrate at 125 to 1000 nM by fluorescence analysis; conditions: dose 125-1000 nM
[3] = target: Cruzipain (Trypanosoma cruzi) (UniProt P25779); assay: Time dependent inhibition of recombinant Trypanosoma cruzi Cruzipain using Z-FR-AMC as substrate at 125 nM preincubated for 60 mins followed by substrate addition and measured for 45 to 60 mins by fluorescence analysis; conditions: time 105-120 min, TDE = time-dependent effect
[4] = target: Cruzipain (Trypanosoma cruzi) (UniProt P25779); assay: Reversible inhibition of recombinant Trypanosoma cruzi Cruzipain using Z-LR-AMC as substrate at 25 uM preincubated for 60 mins followed by substrate addition and measured for 45 to 60 mins by fluorescence analysis; conditions: time 105-120 min
Cruzipain [5] = target: T1, Cruzipain (Trypanosoma cruzi, UniProt P25779); assay: Inhibition of recombinant Trypanosoma cruzi Cruzipain using Z-FR-AMC as substrate preincubated for 20 mins followed by substrate addition and measured for 45 mins by fluorescence analysis
Cruzipain [6] = target: T1, Cruzipain; assay: Inhibition of recombinant Trypanosoma cruzi Cruzipain using Z-Phe-Arg-AMC as substrate preincubated for 5 mins followed by substrate addition by spectrofluorometry analysis
[7] = target: Cruzipain (Trypanosoma cruzi) (UniProt P25779); assay: Reversible inhibition of recombinant Trypanosoma cruzi Cruzipain using Z-LR-AMC as substrate at 1 uM preincubated for 60 mins followed by substrate addition and measured for 45 to 60 mins by fluorescence analysis; conditions: time 105-120 min
[8] = target: Cruzipain (Trypanosoma cruzi) (UniProt P25779); assay: Reversible inhibition of recombinant Trypanosoma cruzi Cruzipain using Z-LR-AMC as substrate at 10 uM preincubated for 60 mins followed by substrate addition and measured for 45 to 60 mins by fluorescence analysis; conditions: time 105-120 min

T1 sequence (P25779 whole entry): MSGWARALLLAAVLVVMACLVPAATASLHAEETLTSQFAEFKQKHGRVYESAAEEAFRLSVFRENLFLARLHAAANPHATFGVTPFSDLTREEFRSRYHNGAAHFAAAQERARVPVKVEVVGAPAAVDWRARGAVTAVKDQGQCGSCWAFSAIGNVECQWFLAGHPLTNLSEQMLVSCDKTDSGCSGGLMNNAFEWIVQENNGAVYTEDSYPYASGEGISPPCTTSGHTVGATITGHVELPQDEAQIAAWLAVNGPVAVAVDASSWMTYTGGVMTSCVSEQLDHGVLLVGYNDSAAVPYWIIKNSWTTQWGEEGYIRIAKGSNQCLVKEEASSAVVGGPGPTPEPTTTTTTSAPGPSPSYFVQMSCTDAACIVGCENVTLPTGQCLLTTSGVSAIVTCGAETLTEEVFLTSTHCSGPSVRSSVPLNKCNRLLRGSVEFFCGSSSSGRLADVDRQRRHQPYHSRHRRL
Sequence of Cruzipain (Trypanosoma cruzi) (P25779 123-467 limits assumed): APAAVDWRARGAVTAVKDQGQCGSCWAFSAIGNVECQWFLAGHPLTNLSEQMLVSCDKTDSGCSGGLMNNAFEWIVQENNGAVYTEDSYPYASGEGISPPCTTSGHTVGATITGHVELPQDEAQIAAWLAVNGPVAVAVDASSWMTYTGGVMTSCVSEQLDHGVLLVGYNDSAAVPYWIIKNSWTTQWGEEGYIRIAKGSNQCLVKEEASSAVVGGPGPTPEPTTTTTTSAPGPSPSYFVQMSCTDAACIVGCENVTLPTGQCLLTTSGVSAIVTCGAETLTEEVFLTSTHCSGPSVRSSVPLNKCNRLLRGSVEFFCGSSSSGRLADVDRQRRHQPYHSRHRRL

inhibition [1] | inhibition [2] | inhibition [3] | IC50 (Cruzipain [6]) | IC50 (Cruzipain [5]; read-out: IC50) | SMILES | also measured
Tde | Dose-Dependent Effect | Tde |  |  | NC(=S)N/N=C(\CCn1ccnc1)c1ccc(Cl)c(Cl)c1 | inhibition [4]: Active
 |  |  |  |  | N/C(S)=N/N=C/c1cccc(Br)c1 | IC50 (Cruzipain [5]; read-out: pIC50 (converted)): 1360 nM
 |  |  | 110 nM |  | C/C(=N\N=C(\N)S)c1cccc(Br)c1 | 
 |  |  | 24.5 nM |  | CC/C(=N\N=C(\N)S)c1ccc(Cl)c(Cl)c1 | 
Tde | Dose-Dependent Effect | Tde |  | 3.34 nM and 8.48 nM | NC(=S)N/N=C(\CCN1CCOCC1)c1ccc(Cl)c(Cl)c1 | inhibition [7]: Active
Tde | Dose-Dependent Effect | Tde |  | 2.86 nM and 8.54 nM | NC(=S)N/N=C(\CCN1CCCCC1)c1ccc(Cl)c(Cl)c1 | inhibition [8]: Active
